From patent US11999699B2, “Substituted pyrazole amides” (GRUENENTHAL GMBH, priority 2021, dated 2024)

Molecular target: T1, human NaV1.8 (Homo sapiens, UniProt Q9Y5Y9)
T1 construct: The following NaV1.8 recombinant cell line was used for recordings: HEK-NaV1.8 (NM 006514.1); expressed in transfected cells; host or cells: HEK (recombinant cell line HEK-NaV1.8)
Experiment: Electrophysiology: automated whole-cell voltage-clamp (patch clamp, Qube384) recordings of sodium currents in HEK-NaV1.8 cells
Type: cell-based
Conditions: potency data either taken from inactivated or resting state, read-out: Potency category (human NaV1.8 IC50)
Outline: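 Automated whole-cell patch clamp at room temperature on HEK cells expressing human NaV1.8, with 0.3% DMSO vehicle controls. State-dependent protocol from −120 mV tested resting (P1) and half-inactivated (P2, 4 s at V1/2) channels, plus 40-pulse trains at 10 and 20 Hz. Values after ~12 min compound exposure were normalised to baseline and corrected for vehicle run-down; IC50 from a 4-parameter logistic fit, taken from inactivated or resting state.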

T1 sequence (Q9Y5Y9 whole entry): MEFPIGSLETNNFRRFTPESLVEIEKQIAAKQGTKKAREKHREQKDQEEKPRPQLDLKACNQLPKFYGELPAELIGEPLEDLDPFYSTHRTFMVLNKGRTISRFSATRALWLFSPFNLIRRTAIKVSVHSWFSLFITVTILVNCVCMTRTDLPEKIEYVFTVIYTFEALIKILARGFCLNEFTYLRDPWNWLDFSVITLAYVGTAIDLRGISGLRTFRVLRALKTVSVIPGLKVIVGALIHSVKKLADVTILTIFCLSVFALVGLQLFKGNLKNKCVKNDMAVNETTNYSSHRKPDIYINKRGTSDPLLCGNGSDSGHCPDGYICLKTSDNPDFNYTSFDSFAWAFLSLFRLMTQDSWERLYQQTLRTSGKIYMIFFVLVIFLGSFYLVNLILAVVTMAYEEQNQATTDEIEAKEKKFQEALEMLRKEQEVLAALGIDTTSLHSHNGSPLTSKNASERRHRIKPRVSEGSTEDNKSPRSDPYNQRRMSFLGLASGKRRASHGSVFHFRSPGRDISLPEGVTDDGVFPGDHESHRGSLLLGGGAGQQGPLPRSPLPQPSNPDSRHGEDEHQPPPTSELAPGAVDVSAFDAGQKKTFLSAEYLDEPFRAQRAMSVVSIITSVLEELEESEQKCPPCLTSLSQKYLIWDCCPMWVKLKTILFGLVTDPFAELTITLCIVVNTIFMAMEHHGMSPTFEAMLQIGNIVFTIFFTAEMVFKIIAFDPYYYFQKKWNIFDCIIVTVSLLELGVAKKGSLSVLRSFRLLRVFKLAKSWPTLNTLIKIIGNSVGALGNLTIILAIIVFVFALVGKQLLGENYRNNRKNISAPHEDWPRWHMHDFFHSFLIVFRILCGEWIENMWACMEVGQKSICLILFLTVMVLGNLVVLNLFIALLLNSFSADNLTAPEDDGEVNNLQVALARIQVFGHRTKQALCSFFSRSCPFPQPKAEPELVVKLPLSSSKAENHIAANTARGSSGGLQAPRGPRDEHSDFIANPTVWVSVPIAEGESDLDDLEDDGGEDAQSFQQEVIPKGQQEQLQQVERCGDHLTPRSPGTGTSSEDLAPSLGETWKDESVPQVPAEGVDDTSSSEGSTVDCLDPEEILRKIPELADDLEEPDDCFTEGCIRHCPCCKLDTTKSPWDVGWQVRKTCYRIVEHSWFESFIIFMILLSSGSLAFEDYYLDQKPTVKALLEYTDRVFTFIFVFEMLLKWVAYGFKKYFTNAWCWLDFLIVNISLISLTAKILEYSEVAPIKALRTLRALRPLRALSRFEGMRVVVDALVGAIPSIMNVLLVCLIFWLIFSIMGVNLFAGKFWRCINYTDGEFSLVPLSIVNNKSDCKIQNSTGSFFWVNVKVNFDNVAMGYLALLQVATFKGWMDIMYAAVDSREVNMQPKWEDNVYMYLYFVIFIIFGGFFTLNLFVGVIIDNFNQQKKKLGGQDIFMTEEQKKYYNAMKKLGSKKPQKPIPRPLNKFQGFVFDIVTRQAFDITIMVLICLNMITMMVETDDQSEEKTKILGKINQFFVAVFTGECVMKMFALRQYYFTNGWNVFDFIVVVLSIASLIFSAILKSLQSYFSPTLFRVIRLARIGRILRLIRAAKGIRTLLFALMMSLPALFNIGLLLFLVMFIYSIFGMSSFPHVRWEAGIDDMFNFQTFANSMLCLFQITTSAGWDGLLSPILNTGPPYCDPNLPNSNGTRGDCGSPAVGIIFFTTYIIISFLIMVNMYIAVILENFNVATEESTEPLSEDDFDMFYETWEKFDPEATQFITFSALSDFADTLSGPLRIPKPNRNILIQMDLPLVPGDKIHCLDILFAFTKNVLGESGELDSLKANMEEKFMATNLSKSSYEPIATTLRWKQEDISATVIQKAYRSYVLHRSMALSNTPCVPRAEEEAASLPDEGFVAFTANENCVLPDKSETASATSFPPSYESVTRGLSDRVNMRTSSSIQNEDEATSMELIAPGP
T1 sequence (Q9NY72 23-215 partner): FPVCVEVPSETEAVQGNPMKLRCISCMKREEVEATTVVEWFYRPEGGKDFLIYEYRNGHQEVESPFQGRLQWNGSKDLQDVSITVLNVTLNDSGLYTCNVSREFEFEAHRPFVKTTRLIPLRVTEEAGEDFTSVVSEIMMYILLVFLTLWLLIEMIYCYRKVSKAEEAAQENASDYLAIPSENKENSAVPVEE

Row | IC50 | Structure (SMILES)
1 | 100 to 1000 nM | CS(=O)(=O)c1cc(NC(=O)c2c(C(F)(F)F)cnn2CC2CCC(F)(F)CC2)ccc1F [SC-13, 2-[(4,4-difluorocyclohexyl)methyl]-N-(4-fluoro-3-methylsulfonylphenyl)-4-(trifluoromethyl)pyrazole-3-carboxamide]
2 | ≤ 100 nM | CC(F)(F)c1nn(CC2CCC(F)(F)C2)c(C(=O)Nc2ccnc(C(N)=O)c2)c1Cl (single isomer, unassigned) [SC-149a]
3 | 100 to 1000 nM | O=C(Nc1ccnc(O)c1)c1c(C(F)(F)F)cnn1CC1CCCCCC1 [SC-31, 2-(cycloheptylmethyl)-N-(2-hydroxypyridin-4-yl)-4-(trifluoromethyl)pyrazole-3-carboxamide]
4 | ≤ 100 nM | Cc1c(C(F)(F)F)nn(CC2CCC(F)(F)CC2)c1C(=O)Nc1ccnc(S(N)(=O)=O)c1 [SC-320, 1-((4,4-difluorocyclohexyl)methyl)-4-methyl-N-(2-sulfamoylpyridin-4-yl)-3-(trifluoromethyl)-1H-pyrazole-5-carboxamide]
5 | 100 to 1000 nM | CS(=O)(=O)c1cccc(NC(=O)c2cc(C(F)(F)F)nn2CC2CCC(F)(F)CC2)c1 [SC-02, 2-[(4,4-difluorocyclohexyl)methyl]-N-(3-methylsulfonylphenyl)-5-(trifluoromethyl)pyrazole-3-carboxamide]
6 | ≤ 100 nM | Cc1c(C(F)F)nn(CC2CCC(F)(F)CC2)c1C(=O)Nc1ccnc(C(N)=O)c1 [SC-163, 4-(1-((4,4-difluorocyclohexyl)methyl)-3-(difluoromethyl)-4-methyl-1H-pyrazole-5-carboxamido)picolinamide]
7 | ≤ 100 nM | Cc1c(C(C)(F)F)nn(CC2CCC(F)(F)C2)c1C(=O)Nc1ccnc(S(N)(=O)=O)c1 (centres unmarked) [SC-211, 1-((3,3-difluorocyclopentyl)methyl)-3-(1,1-difluoroethyl)-4-methyl-N-(2-sulfamoylpyridin-4-yl)-1H-pyrazole-5-carboxamide]
8 | 100 to 1000 nM | CS(=O)(=O)c1cccc(NC(=O)c2cc(C(F)F)nn2CC2CCCCC2)c1 [SC-09, 1-(cyclohexylmethyl)-3-(difluoromethyl)-N-(3-(methylsulfonyl)phenyl)-1H-pyrazole-5-carboxamide]
9 | ≤ 100 nM | NS(=O)(=O)c1cccc(NC(=O)c2c(C(F)(F)F)c(C3CC3)nn2CC2CCCCO2)c1 (centres unmarked) [SC-264, 3-cyclopropyl-N-(3-sulfamoylphenyl)-1-((tetrahydro-2H-pyran-2-yl)methyl)-4-(trifluoromethyl)-1H-pyrazole-5-carboxamide]
10 | 100 to 1000 nM | Cc1c(Cl)nn(CC2CCC(F)(F)CC2)c1C(=O)Nc1ccnc(C(N)=O)c1 [SC-239, 4-(3-chloro-1-((4,4-difluorocyclohexyl)methyl)-4-methyl-1H-pyrazole-5-carboxamido)picolinamide]
11 | ≤ 100 nM | NS(=O)(=O)c1cccc(NC(=O)c2c(C(F)(F)F)c(C3CC3)nn2CC2CC(F)(F)C2)c1 [SC-276, 3-cyclopropyl-1-((3,3-difluorocyclobutyl)methyl)-N-(3-sulfamoyIphenyl)-4-(trifluoromethyl)-lH-pyrazole-5-carboxamide]
12 | 100 to 1000 nM | CS(=O)(=O)c1cccc(NC(=O)c2c(C(F)(F)F)cnn2CC2CCCC2)c1 [SC-25, 2-(cyclopentylmethyl)-N-(3-methylsulfonylphenyl)-4-(trifluoromethyl)pyrazole-3-carboxamide]
13 | ≤ 100 nM | NS(=O)(=O)c1cccc(NC(=O)c2c(C(F)(F)F)c(C(F)F)nn2CC2CCC(F)(F)C2)c1 (centres unmarked) [SC-262, 1-((3,3-difluorocyclopentyl)methyl)-3-(difluoromethyl)-N-(3-sulfamoylphenyl)-4-(trifluoromethyl)-1H-pyrazole-5-carboxamide]
14 | 1000 to 10000 nM | CS(=O)(=O)c1cncc(NC(=O)c2c(C(F)(F)F)cnn2CC2CCC(F)(F)CC2)c1 [SC-15, 2-[(4,4-difluorocyclohexyl)methyl]-N-(5-methylsulfonylpyridin-3-yl)-4-(trifluoromethyl)pyrazole-3-carboxamide]
15 | ≤ 100 nM | NS(=O)(=O)c1cc(NC(=O)c2c(C(F)(F)F)c(C3CC3)nn2CC2CC(F)(F)C2)ccn1 [SC-282, 3-cyclopropyl-1-((3,3-difluorocyclobutyl)methyl)-N-(2-sulfamoylpyridin-4-yl)-4-(trifluoromethyl)-1H-pyrazole-5-carboxamide]
16 | ≤ 100 nM | NC(=O)c1cc(NC(=O)c2c(C(F)(F)F)c(C3CC3)nn2CC2CC(OC(F)(F)F)C2)ccn1 (single isomer, unassigned) [SC-219b]
17 | ≤ 100 nM | NC(=O)c1cc(NC(=O)c2c(C(F)(F)F)c(C3CC3)nn2C[C@@H]2CCO[C@@H]2C(F)(F)F)ccn1 (single isomer, unassigned) [SC-147a]
18 | ≤ 100 nM | NC(=O)c1cc(NC(=O)c2c(C(F)(F)F)c(C3CC3)nn2CC2CCCCO2)ccc1F (centres unmarked) [SC-140, N-(3-carbamoyl-4-fluorophenyl)-3-cyclopropyl-1-((tetrahydro-2H-pyran-2-yl)methyl)-4-(trifluoromethyl)-1H-pyrazole-5-carboxamide]
19 | ≤ 100 nM | NS(=O)(=O)c1cccc(NC(=O)c2c(C(F)(F)F)c(C3CC3)nn2CC2CCC(F)(F)CC2)c1 [SC-230, 3-cyclopropyl-1-((4,4-difluorocyclohexyl)methyl)-N-(3-sulfamoylphenyl)-4-(trifluoromethyl)-lH-pyrazole-5-carboxamide]

Row | IC50 | Structure (SMILES)
20 | ≤ 100 nM | NC(=O)c1cc(NC(=O)c2c(C(F)(F)F)c(C3CC3)nn2CC2CCC(F)(F)C2)ccn1 (single isomer, unassigned) [SC-129a]
21 | 100 to 1000 nM | Cc1c(C(C)(F)F)nn([C@@H](C)C2CC(F)(F)C2)c1C(=O)Nc1ccnc(S(C)(=O)=O)c1 [SC-222a]
22 | ≤ 100 nM | Cc1nn(CC2CCC(F)(F)CC2)c(C(=O)Nc2cccc(S(N)(=O)=O)c2)c1Cl [SC-236, 4-chloro-1-((4,4-difluorocyclohexyl)methyl)-3-methyl-N-(3-sulfamoylphenyl)-1H-pyrazole-5-carboxamide]
23 | ≤ 100 nM | NC(=O)c1cc(NC(=O)c2c(C(F)(F)F)c(C3CC3)nn2CC2CCC(F)(F)C2)ccn1 (single isomer, unassigned) [SC-129b]
24 | ≤ 100 nM | Cc1c(C(C)(F)F)nn(C[C@@]2(C)CCC(F)(F)C2)c1C(=O)Nc1ccnc(S(N)(=O)=O)c1 (single isomer, unassigned) [SC-212b]
25 | 100 to 1000 nM | Cc1c(C(C)(F)F)nn(C[C@]2(C)CCCO2)c1C(=O)Nc1ccnc(S(N)(=O)=O)c1 (single isomer, unassigned) [SC-319a]
26 | ≤ 100 nM | NC(=O)c1cc(NC(=O)c2c(C(F)(F)F)c(C3CC3)nn2C[C@@H]2CO[C@H](C(F)(F)F)C2)ccn1 (single isomer, unassigned) [SC-148a]
27 | 1000 to 10000 nM | Cc1nn(CC2CCC(F)(F)CC2)c(C(=O)Nc2ccnc(C(N)=O)c2F)c1C(F)(F)F [SC-289, 4-(1-((4,4-difluorocyclohexyl)methyl)-3-methyl-4-(trifluoromethyl)-1H-pyrazole-5-carboxamido)-3-fluoropicolinamide]
28 | 100 to 1000 nM | Cc1nn(CC2CCC(F)(F)CC2)c(C(=O)Nc2cccc(S(C)(=O)=O)c2)c1C [SC-44, 2-[(4,4-difluorocyclohexyl)methyl]-4,5-dimethyl-N-(3-methylsulfonylphenyl)pyrazole-3-carboxamide]
29 | 1000 to 10000 nM | Cc1nn(CC2CCC(F)(F)CC2)c(C(=O)Nc2cc(C(N)=O)c(F)cn2)c1C(F)(F)F [SC-268, 2-(1-((4,4-difluorocyclohexyl)methyl)-3-methyl-4-(trifluoromethyl)-1H-pyrazole-5-carboxamido)-5-fluoroisonicotinamide]
30 | ≤ 100 nM | NC(=O)c1cc(NC(=O)c2c(C(F)(F)F)c(C3CC3)nn2CC2CC(F)(F)C2(F)F)ccn1 (single isomer, unassigned) [SC-291a]
31 | ≤ 100 nM | CC(C)c1nn(CC2CC(F)(F)C2)c(C(=O)Nc2ccnc(C(N)=O)c2)c1C(F)(F)F [SC-170, 4-(1-((3,3-difluorocyclobutyl)methyl)-3-isopropyl-4-(trifluoromethyl)-1H-pyrazole-5-carboxamido)picolinamide]
32 | ≤ 100 nM | Cc1c(C(C)(F)F)nn(CC2(C)CC2)c1C(=O)Nc1ccnc(S(N)(=O)=O)c1 [SC-313, 3-(1,1-difluoroethyl)-4-methyl-1-((1-methyleyelopropyl)methyl)-N-(2-sulfamoylpyridin-4-yl)-lH-pyrazole-5-carboxamide]
33 | 100 to 1000 nM | CS(=O)(=O)c1cccc(NC(=O)c2cc(C(F)(F)F)nn2CC2CCCC2)c1 [SC-03, 2-(cyclopentylmethyl)-N-(3-methylsulfonylphenyl)-5-(trifluoromethyl)pyrazole-3-carboxamide]
34 | ≤ 100 nM | CC1CCCC(Cn2nc(C3CC3)c(C(F)(F)F)c2C(=O)Nc2ccnc(C(N)=O)c2)O1 (centres unmarked) [SC-143, 4-(3-cyclopropyl-1-((6-methyltetrahydro-2H-pyran-2-yl)methyl)-4-(trifluoromethyl)-1H-pyrazole-5-carboxamido)picolinamide]
35 | ≤ 100 nM | CS(=O)(=O)c1cccc(NC(=O)c2c(C(F)F)cnn2CC2CCCCC2)c1 [SC-229, 1-(cyclohexylmethyl)-4-(difluoromethyl)-N-(3-(methylsulfonyl)phenyl)-1H-pyrazole-5-carboxamide]
36 | 1000 to 10000 nM | CC(C1CCCCC1)n1ncc(C(F)(F)F)c1C(=O)Nc1ccnc(O)c1 (centres unmarked) [SC-32, 2-(1-cyclohexylethyl)-N-(2-hydroxypyridin-4-yl)-4-(trifluoromethyl)pyrazole-3-carboxamide]
37 | 100 to 1000 nM | COC1CC(Cn2nc(C3CC3)c(C(F)(F)F)c2C(=O)Nc2ccnc(C(N)=O)c2)C1 (single isomer, unassigned) [SC-281a]
38 | ≤ 100 nM | C[S+]([O-])c1cc(NC(=O)c2c(C(F)(F)F)c(C(C)(F)F)nn2CC2CC(F)(F)C2)ccn1 (centres unmarked) [SC-303, 1-((3,3-difluorocyclobutyl)methyl)-3-(1,1-difluoroethyl)-N-(2-(methylsulfinyl)pyridin-4-yl)-4-(trifluoromethyl)-1H-pyrazole-5-carboxamide]
